Assay results as given in paper PMC10067855, “Sialidases and fucosidases of Akkermansia muciniphila are crucial for growth on mucin and nutrient sharing with mucus-associated gut bacteria” (Nature Communications, 2023).

What was measured:
AmGH95B = molecular target: T1, AmGH95B (Akkermansia muciniphila, UniProt B2UR61); test: inhibition of pNPFuc hydrolysis, A405; format: biochemical
T1 construct: gene Amuc_1120; mature peptide lacking the signal peptide
T1 sequence (B2UR61 23-796): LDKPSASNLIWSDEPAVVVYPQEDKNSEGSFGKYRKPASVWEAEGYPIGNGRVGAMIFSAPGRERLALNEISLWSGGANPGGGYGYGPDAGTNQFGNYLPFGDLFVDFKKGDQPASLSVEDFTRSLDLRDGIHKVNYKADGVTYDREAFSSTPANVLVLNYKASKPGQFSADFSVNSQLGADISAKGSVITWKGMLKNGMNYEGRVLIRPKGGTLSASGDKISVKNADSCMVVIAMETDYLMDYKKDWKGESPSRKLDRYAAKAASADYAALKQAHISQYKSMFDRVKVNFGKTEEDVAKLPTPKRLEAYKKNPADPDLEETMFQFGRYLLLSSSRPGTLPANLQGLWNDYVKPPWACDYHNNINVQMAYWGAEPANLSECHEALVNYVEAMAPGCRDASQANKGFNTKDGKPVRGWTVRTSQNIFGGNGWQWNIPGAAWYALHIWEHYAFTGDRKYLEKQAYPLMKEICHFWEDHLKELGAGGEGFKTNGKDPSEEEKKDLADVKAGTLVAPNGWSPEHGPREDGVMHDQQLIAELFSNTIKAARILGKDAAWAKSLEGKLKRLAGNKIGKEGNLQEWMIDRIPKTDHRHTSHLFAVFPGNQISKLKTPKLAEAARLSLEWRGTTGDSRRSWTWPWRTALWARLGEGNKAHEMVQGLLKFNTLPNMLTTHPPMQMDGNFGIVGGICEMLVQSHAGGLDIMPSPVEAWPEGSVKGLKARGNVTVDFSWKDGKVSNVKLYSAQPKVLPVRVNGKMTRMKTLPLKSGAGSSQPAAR

AmGH29B = molecular target: T2, AmGH29B (Akkermansia muciniphila, UniProt B2ULU6); test: inhibition of pNPFuc hydrolysis, A405; format: biochemical
T2 construct: gene Amuc_0146; mature peptide lacking the signal peptide
T2 sequence (B2ULU6 27-711): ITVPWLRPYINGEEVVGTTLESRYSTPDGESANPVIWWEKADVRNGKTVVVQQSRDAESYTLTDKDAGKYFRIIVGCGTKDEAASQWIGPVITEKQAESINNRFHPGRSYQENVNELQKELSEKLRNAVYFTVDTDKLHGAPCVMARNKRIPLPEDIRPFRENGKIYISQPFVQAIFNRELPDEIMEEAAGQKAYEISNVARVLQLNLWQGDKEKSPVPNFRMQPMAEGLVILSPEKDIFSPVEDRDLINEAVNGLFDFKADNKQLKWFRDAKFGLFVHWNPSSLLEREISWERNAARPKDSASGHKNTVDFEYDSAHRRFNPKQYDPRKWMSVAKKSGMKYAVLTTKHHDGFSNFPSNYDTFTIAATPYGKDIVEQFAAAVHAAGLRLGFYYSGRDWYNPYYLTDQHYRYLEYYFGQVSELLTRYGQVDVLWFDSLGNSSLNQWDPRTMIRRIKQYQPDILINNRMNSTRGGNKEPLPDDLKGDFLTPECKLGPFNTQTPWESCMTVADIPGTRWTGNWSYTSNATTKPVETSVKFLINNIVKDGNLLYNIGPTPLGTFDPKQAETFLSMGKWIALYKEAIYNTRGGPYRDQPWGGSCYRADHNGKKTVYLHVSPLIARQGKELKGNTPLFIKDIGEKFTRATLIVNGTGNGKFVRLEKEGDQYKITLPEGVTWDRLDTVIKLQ

IC50 (AmGH95B): < 54 µM
IC50 (AmGH29B): < 54 µM
SMILES: C[C@@H]1NC[C@@H](O)[C@H](O)[C@@H]1O [DFJ, 1-Deoxyfuconojirimycin]
